Earlier results as cited in US20100331927A1, “FEEDBACK-CONTROLLED METHOD FOR DELIVERING PHOTODYNAMIC THERAPY AND RELATED INSTRUMENTATION” (priority 2007, published 2010).

Tested on: rat bladder tumor model
Settings: 60s/60s light interval/dark interval

C=Cc1c(C)c2cc3nc(cc4[nH]c(cc5nc(cc1[nH]2)C(C)=C5CCC(=O)O)c(CCC(=O)OC)c4C)C1(C)C3=CC=C(C(=O)OC)C1C(=O)OC (stereo not shown) [BPD-MA]
improvement of phototoxicity by light fractionation: 1000 fold
